Marks after values point to notes of the source that are not given here.
Key:
[1] = tested on: Meloidogyne incognita (RKN); assay: Seed treatment test of root knot nematode on cucumber; format: in vivo; conditions: 10 mg ai/gram seed (abamectin positive control), cucumber seeds
Description: For a given concentration the chemical is dissolved in 500 ul of acetone and one gram of cucumber seed (RKN test) or soybean seed (SCN test) is added (e.g., 20 mg active ingredient in 500 ul acetone plus 1 gram of seed). The seed solutions are agitated until all seeds were thoroughly covered with the chemical solution. The acetone is then allowed to evaporate by air drying the seeds. The seeds are planted in 2-inch pots containing sandy soil and then the pots are inoculated with 1000 Meloidogyne incognita (RKN) or 1000 Heterodera glycines (SCN) eggs per pot three days after planting. Plants are rated for galling 14 days after egg inoculation for RKN or 28 days after egg inoculation for SCN.

[2] = tested on: Heterodera glycines (SCN); assay: Seed treatment test of soybean cyst nematode on soybean; format: in vivo; conditions: test a
Summary of the method: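 Seeds (1 g cucumber for RKN, soybean for SCN) coated with compound in 500 ul acetone, air-dried, sown in sandy soil. Pots inoculated 3 days later with 1000 eggs per pot. Galling rated 14 days (RKN) or 28 days (SCN) after inoculation.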

[3] = mice; cited from earlier work
[4] = Corn seed treatment field trials (yield); format: in vivo; conditions: seed treatment in corn, multi-location replicated field trials
Description: (§1) Tioxazafen was combined with commercial fungicides and insecticides in a tank slurry mix with colorant, polymer, and water at the recommended rates and allowed to mix thoroughly. Using a Gustafson continuous batch seed coater the seed batch was loaded, the treatment slurry was injected and the mixture was allowed to tumble for 35-40 seconds before being ejected into a paper storage bag.
(§2) Predictive nematode sampling was conducted prior to field trial implementation to ensure appropriate levels of nematode pressure. Trial areas were divided into 2 acre sections based upon soil type, crop history, tillage, drainage, fertilization and other agronomic factors. […] Sub-samples (˜1 pint of soil) were taken from each composite sample and placed in a plastic bag, with appropriate handling to ensure viability of nematodes, and sent to a lab for nematode quantification. […]
(§3) Quantitative in-season nematode sampling using root and soil samples was conducted eight weeks after planting for corn and soy trials. […] Samples were sent to a lab for nematode quantification.
(§4) Yield data was collected using commercially available harvesting equipment to harvest each plot. The data were calculated to represent bushels per acre by taking the grain weight over the square footage of each plot and adjusting to 15% moisture.

[5] = Soy seed treatment field trials (yield); format: in vivo; conditions: seed treatment in soy, multi-location replicated field trials
Description: as §1, §2, §3, §4

Abamectin [reference compound]
percent control (galling reduction) relative to the control blank treatment [1]: 84%
percent cyst reduction relative to control blank treatment ([2]; 0.375 mg ai/gram seed): −14^a percent
percent cyst reduction relative to control blank treatment ([2]; 1.5 mg ai/gram seed): −24^a percent
oral LD50 [3]: 13.6 mg/kg

c1ccc(-c2noc(-c3cccs3)n2)cc1 [Tioxazafen, 3-phenyl-5-(2-thienyl)-1,2,4-oxadiazole]
effect on yield [4]: yield enhancement
effect on yield [5]: yield enhancement

Reference: patent publication US20170367338A1, “COMPOSITIONS AND METHODS FOR IMPROVING AGRONOMIC CHARACTERISTICS OF PLANTS” (MONSANTO TECHNOLOGY LLC, priority 2014, published 2017)
